Results taken from patent US20120058989A1, “ANTIBACTERIAL FLUOROQUINOLONE ANALOGS” (Achaogen, Inc., priority 2008, published 2012).

Legend:
Experiment in all cases: MIC, CLSI broth microdilution
Type in all cases: cell-based
[1] = tested on: P. aeruginosa APAE001 (Fluoroquinolone-susceptible, ATCC27853)
Outline: (§1)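 Broth microdilution per CLSI M7-A7, with serial two-fold compound dilutions in Mueller Hinton Broth mixed 1:1 with inoculum. Colonies from a previous-day agar plate were suspended in saline to a final 5×10^5 CFU/mL. Plates were incubated 20 hours at 35° C. in ambient air.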

[2] = tested on: S. aureus ASAU001 (Fluoroquinolone-susceptible, ATCC29213)
Outline: as §1

[3] = tested on: A. baumannii AABA1009 (Fluoroquinolone-resistant); conditions: Table 2
Outline: as §1

[4] = tested on: S. aureus ASAU1033 (Fluoroquinolone-resistant); conditions: Table 3
Outline: as §1

[5] = tested on: P. aeruginosa APAE054 (Fluoroquinolone-resistant)
Outline: as §1

[6] = tested on: P. aeruginosa APAE002 (Fluoroquinolone susceptible); conditions: Table 3
Outline: as §1

[7] = tested on: E. coli AECO001 (Fluoroquinolone susceptible, ATCC25922)
Outline: as §1

[8] = tested on: A. baumannii AABA1065 (Fluoroquinolone-susceptible)
Outline: as §1

[9] = tested on: S. pneumoniae ASPN002 (Fluoroquinolone-susceptible, ATCC10813); conditions: Table 3
Outline: as §1

[10] = tested on: E. coli AECO002 (Fluoroquinolone susceptible); conditions: Table 3
Outline: as §1

[11] = tested on: S. pneumoniae ASPN1027 (Fluoroquinolone-resistant)
Outline: as §1

[12] = tested on: A. baumannii AABA1020 (Fluoroquinolone-resistant); conditions: Table 3
Outline: as §1

[13] = tested on: S. aureus ASAU1031 (Fluoroquinolone-resistant)
Outline: as §1

[14] = tested on: S. pneumoniae ASPN001 (Fluoroquinolone-susceptible, ATCC49619)
Outline: as §1

[15] = tested on: S. aureus ASAU002 (Fluoroquinolone-susceptible, ATCC33591 (MRSA)); conditions: Table 3
Outline: as §1

[16] = tested on: S. pneumoniae ASPN1018 (Fluoroquinolone-resistant); conditions: Table 3
Outline: as §1

[17] = tested on: E. coli AECO066 (Fluoroquinolone-resistant)
Outline: as §1

[18] = tested on: E. coli AECO086 (Fluoroquinolone-resistant); conditions: Table 3
Outline: as §1

Row | MIC APAE 001 ([1]; Table 3) | MIC ASAU 001 ([2]; Table 2) | MIC ASAU 001 ([2]; Table 3) | MIC AABA 1009 [3] | MIC ASAU1033 [4] | MIC APAE 054 ([5]; Table 2) | MIC APAE 054 ([5]; Table 3) | MIC APAE002 [6] | MIC AECO 001 ([7]; Table 2, 35° C., 20 hours) | MIC AECO 001 ([7]; Table 3) | MIC AABA 1065 ([8]; Table 2) | MIC AABA 1065 ([8]; Table 3) | MIC ASPN002 [9] | MIC AECO002 [10] | MIC ASPN 1027 ([11]; Table 2) | MIC ASPN 1027 ([11]; Table 3) | MIC AABA1020 [12] | MIC ASAU 1031 ([13]; Table 2) | MIC ASAU 1031 ([13]; Table 3) | Compound | MIC APAE 001 ([1]; Table 2) | further results
1 | C (MIC's of 2.0 μg/mL to 8.0 μg/mL = C) | A (MIC's of 1.0 μg/mL or less = A) | A (MIC's of less than 1.0 = A) | C (MIC's of greater than 8.0 μg/mL = C) | D (MIC's of greater than 8.0 μg/mL = D) | C (MIC's of greater than 8.0 μg/mL = C) | D (MIC's of greater than 8.0 μg/mL = D) | B (MIC's of 1.0 μg/mL to 2.0 μg/mL = B) | A (MIC's of 1.0 μg/mL or less = A) | A (MIC's of less than 1.0 = A) | A (MIC's of 1.0 μg/mL or less = A) | A (MIC's of less than 1.0 = A) | B (MIC's of 1.0 μg/mL to 2.0 μg/mL = B) | A (MIC's of less than 1.0 = A) | C (MIC's of greater than 8.0 μg/mL = C) | D (MIC's of greater than 8.0 μg/mL = D) | D (MIC's of greater than 8.0 μg/mL = D) | C (MIC's of greater than 8.0 μg/mL = C) | D (MIC's of greater than 8.0 μg/mL = D) | N[C@@H]1C[C@H]2CCCc3c(c(F)cc4c(=O)c(C(=O)O)cn(C5CC5)c34)N2C1.O=C(O)C(F)(F)F [7D/39, (7aR,9R)-9-Amino-4-cyclopropyl-12-fluoro-1-oxo-4,5,6,7,7a,8,9,10-octahydro-1H-pyrrolo[1′,2′:1,7]-azepino[2,3-h]quinoline-2-carboxylic acid trifluoroacetate] | B (MIC's of greater than 1.0 μg/mL to 8.0 μg/mL = B) | MIC ASPN 001 ([14]; Table 2): B (MIC's of greater than 1.0 μg/mL to 8.0 μg/mL = B); MIC ASPN 001 ([14]; Table 3): B (MIC's of 1.0 μg/mL to 2.0 μg/mL = B); MIC ASAU002 [15]: A (MIC's of less than 1.0 = A); MIC ASPN1018 [16]: D (MIC's of greater than 8.0 μg/mL = D); MIC AECO 066 ([17]; Table 2): C (MIC's of greater than 8.0 μg/mL = C); MIC AECO 066 ([17]; Table 3): D (MIC's of greater than 8.0 μg/mL = D); MIC AECO086 [18]: D (MIC's of greater than 8.0 μg/mL = D)
2 | B (MIC's of 1.0 μg/mL to 2.0 μg/mL = B) | A (MIC's of 1.0 μg/mL or less = A) | A (MIC's of less than 1.0 = A) | C (MIC's of greater than 8.0 μg/mL = C) | D (MIC's of greater than 8.0 μg/mL = D) | C (MIC's of greater than 8.0 μg/mL = C) | D (MIC's of greater than 8.0 μg/mL = D) | B (MIC's of 1.0 μg/mL to 2.0 μg/mL = B) | A (MIC's of 1.0 μg/mL or less = A) | A (MIC's of less than 1.0 = A) | A (MIC's of 1.0 μg/mL or less = A) | A (MIC's of less than 1.0 = A) | B (MIC's of 1.0 μg/mL to 2.0 μg/mL = B) | A (MIC's of less than 1.0 = A) | C (MIC's of greater than 8.0 μg/mL = C) | D (MIC's of greater than 8.0 μg/mL = D) | D (MIC's of greater than 8.0 μg/mL = D) | C (MIC's of greater than 8.0 μg/mL = C) | D (MIC's of greater than 8.0 μg/mL = D) | N[C@@H]1C[C@H]2CC=Cc3c(c(F)cc4c(=O)c(C(=O)O)cn(C5CC5)c34)N2C1.O=C(O)C(F)(F)F [7D/40, (7aR,9R)-9-Amino-4-cyclopropyl-12-fluoro-1-oxo-4,7,7a,8,9,10-hexahydro-1H-pyrrolo[1′,2′:1,7]-azepino[2,3-h]quinoline-2-carboxylic acid trifluoroacetate] | B (MIC's of greater than 1.0 μg/mL to 8.0 μg/mL = B) | MIC ASPN 001 ([14]; Table 2): B (MIC's of greater than 1.0 μg/mL to 8.0 μg/mL = B); MIC ASPN 001 ([14]; Table 3): B (MIC's of 1.0 μg/mL to 2.0 μg/mL = B); MIC ASAU002 [15]: A (MIC's of less than 1.0 = A); MIC ASPN1018 [16]: D (MIC's of greater than 8.0 μg/mL = D); MIC AECO 066 ([17]; Table 2): C (MIC's of greater than 8.0 μg/mL = C); MIC AECO 066 ([17]; Table 3): D (MIC's of greater than 8.0 μg/mL = D); MIC AECO086 [18]: D (MIC's of greater than 8.0 μg/mL = D)

Row | Compound | MIC APAE 001 ([1]; Table 3) | MIC ASAU 001 ([2]; Table 2) | MIC ASAU 001 ([2]; Table 3) | MIC AABA 1009 [3] | MIC ASAU1033 [4] | MIC APAE 054 ([5]; Table 2) | MIC APAE 054 ([5]; Table 3) | MIC APAE002 [6] | MIC AECO 001 ([7]; Table 2, 35° C., 20 hours) | MIC AECO 001 ([7]; Table 3) | MIC AABA 1065 ([8]; Table 2) | MIC AABA 1065 ([8]; Table 3) | MIC ASPN002 [9] | MIC AECO002 [10] | MIC ASPN 1027 ([11]; Table 2) | MIC ASPN 1027 ([11]; Table 3) | MIC AABA1020 [12] | MIC ASAU 1031 ([13]; Table 2) | MIC ASAU 1031 ([13]; Table 3) | MIC APAE 001 ([1]; Table 2) | further results
3 | N[C@@H]1C[C@@H]2CCCc3c(c(F)cc4c(=O)c(C(=O)O)cn(C5CC5)c34)N2C1.O=C(O)C(F)(F)F [7E/49, (7aS,9R)-9-Amino-4-cyclopropyl-12-fluoro-1-oxo-4,5,6,7,7a,8,9,10-octahydro-1H-pyrrolo[1′,2′:1,7]-azepino[2,3-h]quinoline-2-carboxylic acid trifluoroacetate] | D (MIC's of greater than 8.0 μg/mL = D) | B (MIC's of greater than 1.0 μg/mL to 8.0 μg/mL = B) | C (MIC's of 2.0 μg/mL to 8.0 μg/mL = C) | C (MIC's of greater than 8.0 μg/mL = C) | D (MIC's of greater than 8.0 μg/mL = D) | C (MIC's of greater than 8.0 μg/mL = C) | D (MIC's of greater than 8.0 μg/mL = D) | D (MIC's of greater than 8.0 μg/mL = D) | C (MIC's of greater than 8.0 μg/mL = C) | D (MIC's of greater than 8.0 μg/mL = D) | C (MIC's of greater than 8.0 μg/mL = C) | D (MIC's of greater than 8.0 μg/mL = D) | D (MIC's of greater than 8.0 μg/mL = D) | D (MIC's of greater than 8.0 μg/mL = D) | C (MIC's of greater than 8.0 μg/mL = C) | D (MIC's of greater than 8.0 μg/mL = D) | D (MIC's of greater than 8.0 μg/mL = D) | C (MIC's of greater than 8.0 μg/mL = C) | D (MIC's of greater than 8.0 μg/mL = D) | C (MIC's of greater than 8.0 μg/mL = C) | MIC ASPN 001 ([14]; Table 2): C (MIC's of greater than 8.0 μg/mL = C); MIC ASPN 001 ([14]; Table 3): D (MIC's of greater than 8.0 μg/mL = D); MIC ASAU002 [15]: C (MIC's of 2.0 μg/mL to 8.0 μg/mL = C); MIC ASPN1018 [16]: C (MIC's of 2.0 μg/mL to 8.0 μg/mL = C); MIC AECO 066 ([17]; Table 2): C (MIC's of greater than 8.0 μg/mL = C); MIC AECO 066 ([17]; Table 3): D (MIC's of greater than 8.0 μg/mL = D); MIC AECO086 [18]: D (MIC's of greater than 8.0 μg/mL = D)
4 | NC1C[C@@H]2CC=Cc3c(c(F)cc4c(=O)c(C(=O)O)cn(C5CC5)c34)N2C1.O=C(O)C(F)(F)F (stereo partly drawn) [7E/50, (7aS,9)-9-Amino-4-cyclopropyl-12-fluoro-1-oxo-4,7,7a,8,9,10-hexahydro-1H-pyrrolo[1′,2′:1,7]-azepino[2,3-h]quinoline-2-carboxylic acid trifluoroacetate] | D (MIC's of greater than 8.0 μg/mL = D) | C (MIC's of greater than 8.0 μg/mL = C) | D (MIC's of greater than 8.0 μg/mL = D) | C (MIC's of greater than 8.0 μg/mL = C) | D (MIC's of greater than 8.0 μg/mL = D) | C (MIC's of greater than 8.0 μg/mL = C) | D (MIC's of greater than 8.0 μg/mL = D) | D (MIC's of greater than 8.0 μg/mL = D) | B (MIC's of greater than 1.0 μg/mL to 8.0 μg/mL = B) | C (MIC's of 2.0 μg/mL to 8.0 μg/mL = C) | C (MIC's of greater than 8.0 μg/mL = C) | D (MIC's of greater than 8.0 μg/mL = D) | C (MIC's of 2.0 μg/mL to 8.0 μg/mL = C) | D (MIC's of greater than 8.0 μg/mL = D) | B (MIC's of greater than 1.0 μg/mL to 8.0 μg/mL = B) | C (MIC's of 2.0 μg/mL to 8.0 μg/mL = C) | D (MIC's of greater than 8.0 μg/mL = D) | C (MIC's of greater than 8.0 μg/mL = C) | D (MIC's of greater than 8.0 μg/mL = D) | C (MIC's of greater than 8.0 μg/mL = C) | MIC ASPN 001 ([14]; Table 2): B (MIC's of greater than 1.0 μg/mL to 8.0 μg/mL = B); MIC ASPN 001 ([14]; Table 3): C (MIC's of 2.0 μg/mL to 8.0 μg/mL = C); MIC ASAU002 [15]: C (MIC's of 2.0 μg/mL to 8.0 μg/mL = C); MIC ASPN1018 [16]: C (MIC's of 2.0 μg/mL to 8.0 μg/mL = C); MIC AECO 066 ([17]; Table 2): C (MIC's of greater than 8.0 μg/mL = C); MIC AECO 066 ([17]; Table 3): D (MIC's of greater than 8.0 μg/mL = D); MIC AECO086 [18]: D (MIC's of greater than 8.0 μg/mL = D)
